Our source for the EC50 values is US8426438B2, “Heterocyclic-fused pyrazolo[4,3-c]pyridin-3-one M1 receptor positive allosteric modulators” (Merck Sharp & Dohme Corp., priority 2009, dated 2013).

pEC50: −log10 of the molar value.

The target of this assay is T1, acetylcholine muscarinic M1 receptor (CHOnfat/hM1 cells) (Homo sapiens, UniProt P11229).
T1 construct: expressed in transfected cells; host or cells: CHOnfat cells (CHO, Geneticin selection)
T1 sequence (P11229 1-460): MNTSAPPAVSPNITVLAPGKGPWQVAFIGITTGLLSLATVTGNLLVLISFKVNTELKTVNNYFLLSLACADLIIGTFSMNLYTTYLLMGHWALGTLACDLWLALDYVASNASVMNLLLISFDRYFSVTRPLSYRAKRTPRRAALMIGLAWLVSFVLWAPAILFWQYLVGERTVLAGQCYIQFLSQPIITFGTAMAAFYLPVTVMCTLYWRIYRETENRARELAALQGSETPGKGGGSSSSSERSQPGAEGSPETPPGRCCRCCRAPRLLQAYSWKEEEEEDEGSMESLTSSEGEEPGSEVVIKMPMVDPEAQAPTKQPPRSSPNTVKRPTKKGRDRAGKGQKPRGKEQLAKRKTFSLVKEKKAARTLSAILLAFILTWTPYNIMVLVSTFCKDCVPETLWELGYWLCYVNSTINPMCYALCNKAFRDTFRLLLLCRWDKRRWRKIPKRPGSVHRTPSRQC
Kind of assay: muscarinic FLIPR intracellular calcium assay for M1 positive allosteric modulator activity (acetylcholine EC20). It is filed as cell-based. As to conditions: 4 min preincubation, then EC20 acetylcholine (3 nM final), read-out: IP Value (inflection point). The procedure:
The assay studies the effect of one or several concentrations of test compounds on basal or acetylcholine-stimulated Ca^2+ levels using FLIPR.
Compounds are prepared and subjected to a preincubation period of 4 min. Thereafter, a single EC20 concentration of acetylcholine is added to each well (3 nM final). The intracellular Ca^2+ level of each sample is measured and compared to an acetylcholine control to determine any modulatory activity.
CHOnfat/hM1, hM2, hM3 or hM4 cells are plated 24 hr before the assay at a density of 18,000 cells/well (100 up in a 384 well plate. CHOnfat/hM1 and CHOnfat/hM3 Growth Medium: 90% DMEM (Hi Glucose); 10% HI FBS; 2 mM L-glutamine; 0.1 mM NEAA; Pen-Strep; and 1 mg/ml Geneticin, are added. For M2Gqi5CHOnfat and M4Gqi5CHOnfat cells, an additional 600 μg/ml hygrornycin is added.
384 well plate, 120 μL addition plate; 96-well Whatman 2 ml Uniplate Incubator, 37° C., 5% CO2; Skatron EMBLA-384 Plate Washer; Multimek Pipetting System; Genesis Freedom 200 System; Mosquito System; Temo Nanolitre Pipetting System; and FLIPR^384 Fluorometric Imaging Plate Reader System are used.
Assay Buffer: Hanks Balanced Salt Solution, with 20 mM Hepes, 2.5 mM Probenecid (Sigma P-8761) first dissolved in 1 N NaOH, 1% Bovine Serum Albumin (Sigma A-9647). Dye Loading Buffer: Assay Buffer plus 1% Fetal Bovine Serum and Fluo-4AM/Pluronic Acid Mixture. 2 mM Fluo-4AM ester stock in DMSO (Molecular Probes F-14202) Concentration of 2 μM in buffer for a final concentration of 1 μM in Assay. 20% Pluronic Acid Solution stock, with concentration of 0.04% in Buffer, 0.02% in Assay.
65 μL of 2 mM Fluo-4AM are mixed with 130 μL of 20% Pluronic Acid. The resulting solution and 650 μL FBS is added to the assay buffer for a total volume of 65 mL. Positive Controls: 4-Br-A23187: 10 mM in DMSO; final concentration 10 μM. Acetylcholine: 10 mM in water, working stock at both 20 μM and 30 μM in assay buffer, final concentration of 10 μM. This is used to check the maximum stimulation of the CHOK1/hM1 cells. 20 μM (2×) acetylcholine is added in the preincubation part of the assay, and the 30 μM (3×) stock is added in the second part. (EC20) Acetylcholine: 10 mM in water, working stock of 9 nM (3×), and final concentration in assay is 3 nM. This is used after the preincubation with test compounds. Addition of the EC20 Acetylcholine to each well with a test compound will ascertain any modulator activity. 24 wells contain 3 nM Acetylcholine alone as a control.
Compounds are titrated in 96-well plates (columns 2-11), 100% DMSO, started at a concentration of 15 mM (150× stock concentration), and 3-fold serial dilutions using Genesis Freedom200 System. Four 96-well plates are combined into a 384-well plate using Mosquito Nanolitre Pipetting System by transferring 1 μl of serial diluted compounds to each well, and 1 mM acetylcholine (100× stock concentration) were added as a control. Using Temo, 49 μl assay buffer is added to each well of the 384-well plate right before assay.
In a 96-well Whatman 2 ml Uniplate, 9 nM Acetylcholine (3×) is pipetted into wells corresponding to the screening compounds, and into control wells. The 30 μM acetylcholine control (3×) is added into control wells, and the 3× agonist plate is transferred into a 384 well plate.
Cells are washed three times with 100 μL of buffer, leaving […] of buffer in each well. Using Multimek, 30 μL of Dye Loading Buffer is added into each well and incubated at 37° C., 5% CO2 for up to one hr.
After 60 min, the cells are washed three times with 100 μL of buffer, leaving 30 μL of buffer in each well. The cell plate, screening plate, and agonist addition plates are placed on the platform in the FLIPR and the door closed. A signal test to check background fluorescence and basal fluorescence signal is performed. Laser intensity is adjusted if necessary. […]
Background: Calcium flux is commonly read through the fluorescence of an indicator in the cells.
Take `O=c1c2cn(Cc3ccc(-n4cccn4)cc3)c3c(c-2nn1-c1ccccc1F)C(O)CCC3` (racemic) [Example 11, (±)-2-(2-Fluorophenyl)-9-hydroxy-5-{[4-(1H-pyrazol-1-yl)phenyl]methyl}-2,5,6,7,8,9-hexahydro-3H-pyrazolo[4,3-c]quinolin-3-one]: the pEC50 is 5.89. On to `O=c1c2cn(Cc3ccc(-n4cccn4)cc3)c3cccnc3c-2nn1-c1ccccc1F` [Example 1, 2-(2-Fluorophenyl)-5-{[4-(1H-pyrazol-1-yl)phenyl]methyl}-2,5-dihydro-3H-pyrazolo[4,3-c]-1,5-naphthyridin-3-one], for which the pEC50 is 6.80.

As for `O=c1c2cn(Cc3ccc(-n4cccn4)cc3)c3ncccc3c-2nn1-c1ccccc1F` [Example 2, 2-(2-Fluorophenyl)-5-{[4-(1H-pyrazol-1-yl)phenyl]methyl}-2,5-dihydro-3H-pyrazolo[4,3-c]-1,8-naphthyridin-3-one], the pEC50 is 6.50. The value for `O=c1c2cn(Cc3ccc(-n4cccn4)cc3)c3cnccc3c-2nn1-c1ccccc1F` [Example 4, 2-(2-Fluorophenyl)-5-{[4-(1H-pyrazol-1-yl)phenyl]methyl}-2,5-dihydro-3H-pyrazolo[4,3-c]-1,7-naphthyridin-3-one] was 5.12; that for `Cc1ccccc1-n1nc2c3nccnc3n(Cc3ccc(-n4cccn4)cc3)cc-2c1=O` [Example 6, 2-(2-Methylphenyl)-5-{[4-(1H-pyrazol-1-yl)phenyl]methyl}-2,5-dihydro-3H-pyrazolo[3′,4′:4,5]-pyrido[2,3-b]pyrazin-3-one] was 6.12; that for `O=c1c2cn(Cc3ccc(-n4cccn4)cc3)c3c(c-2nn1-c1ccccc1F)CCC3` [Example 8, 2-(2-Fluorophenyl)-5-{[4-(1H-pyrazol-1-yl)phenyl]methyl}-5,6,7,8-tetrahydrocyclopenta[b]pyrazolo[3,4-d]pyridine-3(2H)-one] was 6.11. Turning to `O=c1c2cn(Cc3ccc(-n4cccn4)cc3)c3c(c-2nn1-c1ccccc1F)CCCC3` [Example 9, 2-(2-Fluorophenyl)-5-{[4-(1H-pyrazol-1-yl)phenyl]methyl}-2,5,6,7,8,9-hexahydro-3H-pyrazolo[3,4-d]pyridine-3(2H)-one], the pEC50 is 6.44. As for `O=c1c2cn(Cc3ccc(-n4cccn4)cc3)c3ccsc3c-2nn1-c1ccccc1F` [Example 12, 2-(2-Fluorophenyl)-5-{[4-(1H-pyrazol-1-yl)phenyl]methyl}-2,5-dihydro-3H-pyrazolo[4,3-d]thieno[3,2-b]pyridin-3-one], the pEC50 is 7.70. Consider `Cc1ccccc1-n1nc2c3sccc3n(Cc3ccc(-n4cccn4)cc3)cc-2c1=O` [Example 13, 2-(2-Methylphenyl)-5-{[4-(1H-pyrazol-1-yl)phenyl]methyl}-2,5-dihydro-3H-pyrazolo[3,4-d]thieno[3,2-b]pyridin-3-one], for which the pEC50 was 6.97.

For the compound `O=c1c2cn(Cc3ccc(-n4cccn4)cc3)c3ccsc3c-2nn1-c1c(Cl)cncc1Cl` [Example 15, 2-(3,5-Dichloropyridin-4-yl)-5-{[4-(1H-pyrazol-1-yl)phenyl]methyl}-2,5-dihydro-3H-pyrazolo[3,4-d]thieno[3,2-b]pyridin-3-one], the pEC50 was 7.19.
